Experimental data as given in US9669095B2, “Cyclosporin analogues for preventing or treating hepatitis C infection” (Enanta Pharmaceuticals, Inc., priority 2014, dated 2017).
*1 amine or outer side, *2 acyl side, *3 side chain or, on linkers, in order; H or OH if unused. Where a SMILES comes first, the peptide text is derived from it. [ ]: non-standard residue; d: D form. X1 = C/C=C/C[C@@H](C)C1ON([*:1])[C@@H]1C(=O)[*:2]; X2 = CNCC(C)(C)[C@@H](C(=O)[*:2])N(C)[*:1]; NMeL = CN[C@@H](CC(C)C)C(=O)O; NMeV = CN[C@H](C(=O)O)C(C)C; dNMeA = CN[C@H](C)C(=O)O; Abu = CC[C@H](N)C(=O)O

Tested on: HCV 1a genotype
Format: cell-based, hepatitis C virus
Details: Genotype-1a replicon, Luciferase assay, 72 hours

C/C=C/C[C@@H](C)C1ON2C(=O)[C@H](C(C)C)N(C)C(=O)[C@H](CC(C)C)N(C)C(=O)[C@H](CC(C)C)N(C)C(=O)[C@@H](C)NC(=O)[C@H](C)NC(=O)[C@H](CC(C)C)N(C)C(=O)[C@H](C(C)C)NC(=O)[C@H](C(C)(C)CNC)N(C)C(=O)[C@@H](C)N(C)C(=O)[C@H](CC)NC(=O)[C@H]12 (stereo partly shown) [Example 1] (cyclo(A[dA][NMeL][NMeL][NMeV][X1][Abu][dNMeA][X2]V[NMeL]))
EC50: 10 to 100 nM
